# From ChEMBL document CHEMBL1275577, “Study of the in vitro activities of rifaximin and comparator agents against 536 anaerobic intestinal bacteria from the perspective of potential utility in pathology involving bowel flora” (Antimicrob Agents Chemother, 2009)
# Experiments:
# Type in all cases: functional
# Eubacterium cylindroides = experiment: Antimicrobial activity against Eubacterium cylindroides by Wadsworth agar dilution method; conditions: Faecalitalea cylindroides
# [1] = tested on: Clostridium aminobutyricum; experiment: Antimicrobial activity against Clostridium aminobutyricum by Wadsworth agar dilution method
# Clostridium butyricum = experiment: Antimicrobial activity against Clostridium butyricum by Wadsworth agar dilution method
# Cutibacterium acnes = experiment: Antimicrobial activity against Propionibacterium acnes by Wadsworth agar dilution method
# [2] = tested on: Pseudoramibacter alactolyticus; experiment: Antimicrobial activity against Eubacterium alactolyticum by Wadsworth agar dilution method
# Clostridium glycolicum = experiment: Antimicrobial activity against Clostridium glycolicum by Wadsworth agar dilution method; conditions: Terrisporobacter glycolicus
# [3] = tested on: Bacteroides thetaiotaomicron; experiment: Antimicrobial activity against Bacteroides thetaiotaomicron by Wadsworth agar dilution method
# Blautia luti = experiment: Antimicrobial activity against Ruminococcus luti by Wadsworth agar dilution method
# Schaalia meyeri = experiment: Antimicrobial activity against Actinomyces meyeri by Wadsworth agar dilution method
# [4] = tested on: Peptostreptococcus anaerobius; experiment: Antimicrobial activity against Peptostreptococcus anaerobius by Wadsworth agar dilution method
# [5] = tested on: Propionibacterium propionicum; experiment: Antimicrobial activity against Propionibacterium propionicum by Wadsworth agar dilution method; conditions: Arachnia propionica
# Ruminococcus torques = experiment: Antimicrobial activity against Ruminococcus torques by Wadsworth agar dilution method; conditions: Mediterraneibacter torques
# Schaalia odontolytica = experiment: Antimicrobial activity against Actinomyces odontolyticus by Wadsworth agar dilution method
# Propionibacterium avidum = experiment: Antimicrobial activity against Propionibacterium avidum by Wadsworth agar dilution method; conditions: Cutibacterium avidum
# Clostridium hathewayi = experiment: Antimicrobial activity against Clostridium hathewayi by Wadsworth agar dilution method; conditions: Hungatella hathewayi
# [6] = tested on: Desulfovibrio fairfieldensis; experiment: Antimicrobial activity against Desulfovibrio fairfieldensis by Wadsworth agar dilution method
# Eubacterium biforme = experiment: Antimicrobial activity against Eubacterium biforme by Wadsworth agar dilution method; conditions: Holdemanella biformis
# Prevotella corporis = experiment: Antimicrobial activity against Prevotella corporis by Wadsworth agar dilution method
# Bifidobacterium breve = experiment: Antimicrobial activity against Bifidobacterium breve by Wadsworth agar dilution method
# Clostridium sp. = experiment: Antimicrobial activity against Clostridium sp. by Wadsworth agar dilution method
# Clostridium septicum = experiment: Antimicrobial activity against Clostridium septicum by Wadsworth agar dilution method
# Eubacterium limosum = experiment: Antimicrobial activity against Eubacterium limosum by Wadsworth agar dilution method
# Clostridium cadaveris = experiment: Antimicrobial activity against Clostridium cadaveris by Wadsworth agar dilution method
# Clostridium scindens = experiment: Antimicrobial activity against Clostridium scindens by Wadsworth agar dilution method
# Ruminococcus obeum = experiment: Antimicrobial activity against Ruminococcus obeum by Wadsworth agar dilution method; conditions: Blautia obeum
# Bacteroides fragilis = experiment: Antimicrobial activity against Bacteroides fragilis by Wadsworth agar dilution method
# [7] = tested on: Lacticaseibacillus rhamnosus; experiment: Antimicrobial activity against Lactobacillus rhamnosus by Wadsworth agar dilution method
# [8] = Antimicrobial activity against Bifidobacterium pseudocatenulatum by Wadsworth agar dilution method
# Bacteroides ovatus = experiment: Antimicrobial activity against Bacteroides ovatus by Wadsworth agar dilution method
# [9] = tested on: Parabacteroides distasonis; experiment: Antimicrobial activity against Parabacteroides distasonis by Wadsworth agar dilution method
# Parvimonas micra = experiment: Antimicrobial activity against Peptostreptococcus micros by Wadsworth agar dilution method
# Fusobacterium varium = experiment: Antimicrobial activity against Fusobacterium varium by Wadsworth agar dilution method
# Bacteroides nordii = experiment: Antimicrobial activity against Bacteroides nordii by Wadsworth agar dilution method
# Clostridium disporicum = experiment: Antimicrobial activity against Clostridium disporicum by Wadsworth agar dilution method
# Holdemania filiformis = experiment: Antimicrobial activity against Holdemania filiformis by Wadsworth agar dilution method
# Desulfovibrio sp. = experiment: Antimicrobial activity against Desulfovibrio sp. by Wadsworth agar dilution method
# Clostridium leptum = experiment: Antimicrobial activity against Clostridium leptum by Wadsworth agar dilution method
# [10] = tested on: Ruminococcus flavefaciens; experiment: Antimicrobial activity against Ruminococcus flavefaciens by Wadsworth agar dilution method
# [11] = tested on: Prevotella melaninogenica; experiment: Antimicrobial activity against Prevotella melaninogenica by Wadsworth agar dilution method
# Clostridium bolteae = experiment: Antimicrobial activity against Clostridium bolteae by Wadsworth agar dilution method; conditions: Enterocloster bolteae
# Porphyromonas somerae = experiment: Antimicrobial activity against Porphyromonas somerae by Wadsworth agar dilution method
# [12] = tested on: Paeniclostridium sordellii; experiment: Antimicrobial activity against Clostridium sordellii by Wadsworth agar dilution method; conditions: Paraclostridium sordellii
# Desulfovibrio vulgaris = experiment: Antimicrobial activity against Desulfovibrio vulgaris by Wadsworth agar dilution method; conditions: Nitratidesulfovibrio vulgaris
# Fusobacterium nucleatum = experiment: Antimicrobial activity against Fusobacterium nucleatum by Wadsworth agar dilution method
# [13] = tested on: Clostridium lactatifermentans; experiment: Antimicrobial activity against Clostridium lactatifermentans by Wadsworth agar dilution method; conditions: Anaerotignum lactatifermentans
# [14] = tested on: Limosilactobacillus fermentum; experiment: Antimicrobial activity against Lactobacillus fermentum by Wadsworth agar dilution method
# Clostridium sporogenes = experiment: Antimicrobial activity against Clostridium sporogenes by Wadsworth agar dilution method
smiles,measurement,setting,value
CC(=O)Oc1ccccc1C(=O)Nc1ncc([N+](=O)[O-])s1 [NITAZOXANIDE],MIC50,Eubacterium cylindroides,2 µg/mL
same,MIC90,Eubacterium cylindroides,32 µg/mL
same,MIC50,[1],0.5 µg/mL
same,MIC90,[1],4 µg/mL
same,MIC50,Clostridium butyricum,0.5 µg/mL
same,MIC90,Clostridium butyricum,4 µg/mL
same,MIC50,Cutibacterium acnes,2 µg/mL
same,MIC90,Cutibacterium acnes,32 µg/mL
same,MIC50,[2],2 µg/mL
same,MIC90,[2],32 µg/mL
same,MIC50,Clostridium glycolicum,0.5 µg/mL
same,MIC90,Clostridium glycolicum,4 µg/mL
same,MIC50,[3],2 µg/mL
same,MIC90,[3],8 µg/mL
same,MIC50,Blautia luti,0.5 µg/mL
same,MIC90,Blautia luti,1 µg/mL
same,MIC50,Schaalia meyeri,2 µg/mL
same,MIC90,Schaalia meyeri,32 µg/mL
same,MIC50,[4],0.5 µg/mL
same,MIC90,[4],1 µg/mL
same,MIC50,[5],2 µg/mL
same,MIC90,[5],32 µg/mL
same,MIC50,Ruminococcus torques,0.5 µg/mL
same,MIC90,Ruminococcus torques,1 µg/mL
same,MIC50,Schaalia odontolytica,2 µg/mL
same,MIC90,Schaalia odontolytica,32 µg/mL
same,MIC50,Propionibacterium avidum,2 µg/mL
same,MIC90,Propionibacterium avidum,32 µg/mL
same,MIC50,Clostridium hathewayi,0.5 µg/mL
same,MIC90,Clostridium hathewayi,0.5 µg/mL
same,MIC50,[6],1 µg/mL
same,MIC90,[6],4 µg/mL
same,MIC50,Eubacterium biforme,2 µg/mL
same,MIC90,Eubacterium biforme,32 µg/mL
same,MIC50,Prevotella corporis,4 µg/mL
same,MIC90,Prevotella corporis,8 µg/mL
same,MIC50,Bifidobacterium breve,2 µg/mL
same,MIC90,Bifidobacterium breve,32 µg/mL
same,MIC50,Clostridium sp.,0.5 µg/mL
same,MIC90,Clostridium sp.,4 µg/mL
same,MIC50,Clostridium septicum,0.5 µg/mL
same,MIC90,Clostridium septicum,4 µg/mL
same,MIC50,Eubacterium limosum,2 µg/mL
same,MIC90,Eubacterium limosum,32 µg/mL
same,MIC50,Clostridium cadaveris,0.5 µg/mL
same,MIC90,Clostridium cadaveris,4 µg/mL
same,MIC50,Clostridium scindens,0.5 µg/mL
same,MIC90,Clostridium scindens,4 µg/mL
same,MIC50,Ruminococcus obeum,0.5 µg/mL
same,MIC90,Ruminococcus obeum,1 µg/mL
same,MIC50,Bacteroides fragilis,4 µg/mL
same,MIC90,Bacteroides fragilis,4 µg/mL
same,MIC50,[7],2 µg/mL
same,MIC90,[7],32 µg/mL
same,MIC50,[8],2 µg/mL
same,MIC90,[8],32 µg/mL
same,MIC50,Bacteroides ovatus,2 µg/mL
same,MIC90,Bacteroides ovatus,4 µg/mL
same,MIC50,[9],4 µg/mL
same,MIC90,[9],4 µg/mL
same,MIC50,Parvimonas micra,0.5 µg/mL
same,MIC90,Parvimonas micra,1 µg/mL
same,MIC50,Fusobacterium varium,1 µg/mL
same,MIC90,Fusobacterium varium,8 µg/mL
same,MIC50,Bacteroides nordii,4 µg/mL
same,MIC90,Bacteroides nordii,4 µg/mL
same,MIC50,Clostridium disporicum,0.5 µg/mL
same,MIC90,Clostridium disporicum,4 µg/mL
same,MIC50,Holdemania filiformis,2 µg/mL
same,MIC90,Holdemania filiformis,32 µg/mL
same,MIC50,Desulfovibrio sp.,1 µg/mL
same,MIC90,Desulfovibrio sp.,4 µg/mL
same,MIC50,Clostridium leptum,0.5 µg/mL
same,MIC90,Clostridium leptum,4 µg/mL
same,MIC50,[10],0.5 µg/mL
same,MIC90,[10],1 µg/mL
same,MIC50,[11],4 µg/mL
same,MIC90,[11],8 µg/mL
same,MIC50,Clostridium bolteae,0.5 µg/mL
same,MIC90,Clostridium bolteae,4 µg/mL
same,MIC50,Porphyromonas somerae,0.5 µg/mL
same,MIC90,Porphyromonas somerae,1 µg/mL
same,MIC50,[12],0.5 µg/mL
same,MIC90,[12],4 µg/mL
same,MIC50,Desulfovibrio vulgaris,1 µg/mL
same,MIC90,Desulfovibrio vulgaris,4 µg/mL
same,MIC,Fusobacterium nucleatum,0.25 µg/mL
same,MIC50,Fusobacterium nucleatum,0.25 µg/mL
same,MIC90,Fusobacterium nucleatum,0.5 µg/mL
same,MIC50,[13],0.5 µg/mL
same,MIC90,[13],4 µg/mL
same,MIC50,[14],2 µg/mL
same,MIC90,[14],32 µg/mL
same,MIC50,Clostridium sporogenes,0.5 µg/mL
same,MIC90,Clostridium sporogenes,4 µg/mL
